Data set [1] deals with T1, CYP2C9 (Homo sapiens, UniProt P11712).
T1 construct: purchased Promega; host or cells: baculovirus-infected insect cells
Briefly: Cytochrome P450 2C9 assay (P450-Glo). As to conditions: for inhibition at 10 µM: human. Type of data set: in vitro ADME. The text has this: (§1) These assays made use of the PromegaP450-Glo™ (Madison, AL, USA) assay platform. Each CYP450 assay includes microsomal preparations of cytochromes from baculovirus-infected insect cells.

Data set [2] has as its system 786-O (renal carcinoma) cell line. Briefly: Mitochondrial toxicity (MitoTracker Red CMXRos uptake, high content imaging). As to conditions: for % Mitochondrial toxicity: 10 µM, 100% = mitotoxic, 0% = not mitotoxic; for IC50: Homo sapiens, 786-0, read-out: IC50 Mitochondria. Type of data set: cell-based. On the set-up: key to % Mitochondrial toxicity: NI: no inhibition. The protocol: This made use of MitoTracker® Red chloromethyl-X-rosamine (CMXRos) uptake and High Content Imaging to monitor compound mediated mitochondrial toxicity in the 786-O (renal carcinoma) cell line. Cells were maintained using Roswell Park Memorial Institute-1640 (RPMI-1640) medium from Capricorn Scientific GmbH, Ebsdorfergrund, Germany containing 2 mM glutamine, FBS (10% v/v), streptomycin (100 μg/mL) and penicillin G (100 U/mL).

Data set [3] can be described thus: Cytotoxicity against THP-1 macrophages (MTT). As to conditions: human, THP-1-derived macrophages; THP-1 macrophage-like cells; NOAEL = no observed adverse effect level; read-out: CC50 ± SD or NOAEL. The data set is classed as cell-based. The protocol: The effect of compounds 1–3 on THP-1-derived macrophages was assessed by the colorimetric (MTT) assay (3-(4,5-dimethylthiazol-2-yl)-2,5-diphenyl tetrazolium bromide).

In data set [4] the target is T2, Trypanosoma brucei pteridine reductase 1 (TbPTR1) (Trypanosoma brucei brucei, UniProt O76290).
T2 construct: made in house
T2 sequence (O76290 1-268): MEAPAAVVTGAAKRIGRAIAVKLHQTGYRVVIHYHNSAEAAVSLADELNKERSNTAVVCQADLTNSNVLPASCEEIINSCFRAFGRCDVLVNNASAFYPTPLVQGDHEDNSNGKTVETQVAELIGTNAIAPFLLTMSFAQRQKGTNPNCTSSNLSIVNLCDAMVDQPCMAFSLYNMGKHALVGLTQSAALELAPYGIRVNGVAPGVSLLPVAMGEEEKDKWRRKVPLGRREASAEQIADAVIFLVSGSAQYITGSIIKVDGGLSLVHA
The data set is described as follows: TbPTR1 enzyme reporter assay (cytochrome-c reduction, 550 nm). The data set is classed as biochemical. The conditions noted are these: for IC50: compounds 1–3, SD agreed to ±10%; for inhibition at 50 µM: read-out: % Inhibition TbPTR1 (50 μM), 50 μM. The protocol: TbPTR1 and LmPTR1 were purified as reported in literature. The enzyme kinetic profile of each selected protein was characterized by a spectrophotometric assay. The experimental assay consists of enzyme kinetic reaction monitoring at 340 nm for a total time of 180 s. The enzyme kinetic activity was measured at steady-state concentration of 7,8-dihydro-L-biopterin (H2B) and NADPH substrates equal to 50 and 120 µM and varying the enzyme concentration in the 0.001–0.006 µM and 0.005–0.010–0.015–0.020–0.025–0.030 µM range for Lm- and TbPTR1, respectively. The resulting kcat values were equal to 0.68 (s^−1) and 7.2 (s^−1) for Tb- and LmPTR1, respectively. For both TbPTR1 and LmPTR1, the Km value evaluation assay for H2B- and NADPH-substrates was performed in the 0.3-0.6–0.9–1.2–2.4–4.8 µM and 3.0–6.0–12.0–40.0–90.0–190.0 µM concentrations range, respectively.
Compounds 1A–3A were evaluated as reported in our previous paper. The novel synthesized compounds 1–3 were tested towards TbPTR1 and LmPTR1 using the in vitro TbPTR1/LmPTR1 enzyme reporter assay. The experimental procedure consists of monitoring the non-enzymatic reduction reaction of cytochrome-c at 550 nm, related to the reduction reaction of H2B to tetrahydrobiopterin (H4B) by using NADPH as the cofactor. TbPTR1 and LmPTR1 enzyme activity was assayed in a buffer containing 20 mM sodium citrate (pH 6.0) in a final experimental volume equal to 600 µL. The final reaction mixture contained different substrates added in the following order: TbPTR1/LmPTR1 (0.018 µM/0.002 µM) in 20 mM Tris-HCl, glycerol 10% (v/v), pH 7.5; H2B at a final concentration equal to 0.3 µM; cytochrome-c (80 µM); Milli-Q water to a final volume of 600 µL and NADPH to a final concentration of 500 µM. Before the addition of NADPH, the reaction mixture was incubated for 10 min at 30 °C and 80 RPM. To allow the starting of the reaction, NADPH was added and the enzyme reaction was detected for a total time of 10 min at 30 °C, 550 nm. The inhibition profile characterization of compounds 1–3 was performed with a DU-640 spectrophotometer (Beckman Coulter, Brea, CA, USA). Each compound was assayed in duplicate against Tb/LmPTR1 target enzymes in the 0–10–25–50–80–150 µM concentrations range. At the different concentration values, the compounds were added to the reaction mixture (enzyme, H2B, cytochrome-c in 20 mM sodium citrate buffer and Milli-Q water) and incubated for 10 min at 30 °C, 80 RPM. The reaction was initiated by the addition of NADPH (500 µM) and monitored for 10 min at 30 °C, 550 nm. The absorbance values were processed by software analysis and transformed into the corresponding slopes. The percentages of inhibition and the IC50 values were determined.
Background: A reporter such as luciferase makes a cellular process visible.

The target in data set [5] is T3, CYP2D6 (Homo sapiens, UniProt P10635).
T3 construct: purchased Promega; host or cells: baculovirus-infected insect cells
T3 sequence (P10635 whole entry): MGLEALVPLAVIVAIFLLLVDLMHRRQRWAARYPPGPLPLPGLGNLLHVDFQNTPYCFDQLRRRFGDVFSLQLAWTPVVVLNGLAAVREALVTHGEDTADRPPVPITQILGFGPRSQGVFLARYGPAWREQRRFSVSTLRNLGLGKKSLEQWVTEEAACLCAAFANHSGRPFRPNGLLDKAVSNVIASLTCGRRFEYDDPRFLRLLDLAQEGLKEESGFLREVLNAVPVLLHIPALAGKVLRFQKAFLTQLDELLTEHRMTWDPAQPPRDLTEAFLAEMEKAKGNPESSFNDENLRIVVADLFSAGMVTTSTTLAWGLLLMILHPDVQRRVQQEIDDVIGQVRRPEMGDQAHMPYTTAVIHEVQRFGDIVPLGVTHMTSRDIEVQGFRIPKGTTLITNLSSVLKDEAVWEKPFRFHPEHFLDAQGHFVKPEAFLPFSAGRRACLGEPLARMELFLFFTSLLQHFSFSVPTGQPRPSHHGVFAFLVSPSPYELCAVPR
Briefly: Cytochrome P450 2D6 assay (P450-Glo). As to conditions: for inhibition at 10 µM: human. Type of data set: in vitro ADME.
Description: as §1

In data set [6] the test system is T. brucei bloodstream forms. Briefly: Activity against T. brucei bloodstream forms (resazurin-based assay). The conditions noted are these: for EC50 / inhibition at 10 µM: bloodstream form; for EC50: dose response; for inhibition at 10 µM: read-out: % inh. T. brucei (10 μM); for selectivity index (SI): ratio between CC50 toward THP-1 and EC50 toward T. brucei. Type of data set: cell-based, Trypanosoma brucei. The protocol: The efficacy of compounds against T. brucei bloodstream forms was evaluated using a modified resazurin-based assay previously described in literature.

Data set [7] has as its system A549 cells. Briefly: Cytotoxicity assay against A549 cells (CellTiter-Glo). The data set is classed as cell-based. The conditions noted are these: 100% = not cytotoxic, 0% = cytostatic. The protocol: (§2) The assays were performed using the CellTiter-Glo assay from Promega (Madison, AL, USA). The assay detects cellular adenosine triphosphate (ATP) content with the amount of ATP being directly proportional to the number of cells present. The A549 cells were obtained from DSMZ (German Collection of Microorganisms and Cell Cultures, Braunschweig, Germany) and W1-38 cells were obtained from ATCC (ATCC® CCL-75™) and were grown in Dulbecco's Modified Eagle Medium (DMEM) from Capricorn Scientific GmbH, Ebsdorfergrund, Germany with fetal bovine serum (FBS) (10% v/v) from Capricorn Scientific GmbH, Ebsdorfergrund, Germany, streptomycin (100 μg/mL) and penicillin G (100 U/mL).
On the technique in general: ATP-based viability assays read luminescence as a measure of living cells.

Data set [8] deals with T4, CYP3A4 (Homo sapiens, UniProt P08684).
T4 construct: purchased Promega; host or cells: baculovirus-infected insect cells
T4 sequence (P08684 whole entry): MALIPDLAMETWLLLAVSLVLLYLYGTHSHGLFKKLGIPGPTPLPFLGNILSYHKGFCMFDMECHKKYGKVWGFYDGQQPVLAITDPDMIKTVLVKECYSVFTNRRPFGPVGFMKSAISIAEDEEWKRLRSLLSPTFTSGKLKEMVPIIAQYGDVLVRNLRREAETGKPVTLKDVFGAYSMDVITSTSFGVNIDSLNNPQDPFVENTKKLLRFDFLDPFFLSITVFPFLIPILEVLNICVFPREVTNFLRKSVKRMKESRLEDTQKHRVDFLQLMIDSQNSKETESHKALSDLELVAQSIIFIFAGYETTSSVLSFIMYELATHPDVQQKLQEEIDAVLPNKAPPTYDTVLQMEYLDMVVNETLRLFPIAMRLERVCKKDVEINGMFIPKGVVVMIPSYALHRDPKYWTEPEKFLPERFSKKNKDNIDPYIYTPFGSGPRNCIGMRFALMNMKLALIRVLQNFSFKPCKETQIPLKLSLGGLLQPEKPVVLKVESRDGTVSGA
The data set is described as follows: Cytochrome P450 3A4 assay (P450-Glo). The data set is classed as in vitro ADME. The conditions noted are these: for inhibition at 10 µM: human.
Description: as §1

Data set [9] has as its system W1-38 cells. Briefly: Cytotoxicity assay against W1-38 cells (CellTiter-Glo). Type of data set: cell-based. As to conditions: 100% = not cytotoxic, 0% = cytostatic. The protocol:
as §2

This note sets out measurements from publication PMC6155272, “Chroman-4-One Derivatives Targeting Pteridine Reductase 1 and Showing Anti-Parasitic Activity” (Molecules : A Journal of Synthetic Chemistry and Natural …, 2017).

T1 sequence (P11712 whole entry): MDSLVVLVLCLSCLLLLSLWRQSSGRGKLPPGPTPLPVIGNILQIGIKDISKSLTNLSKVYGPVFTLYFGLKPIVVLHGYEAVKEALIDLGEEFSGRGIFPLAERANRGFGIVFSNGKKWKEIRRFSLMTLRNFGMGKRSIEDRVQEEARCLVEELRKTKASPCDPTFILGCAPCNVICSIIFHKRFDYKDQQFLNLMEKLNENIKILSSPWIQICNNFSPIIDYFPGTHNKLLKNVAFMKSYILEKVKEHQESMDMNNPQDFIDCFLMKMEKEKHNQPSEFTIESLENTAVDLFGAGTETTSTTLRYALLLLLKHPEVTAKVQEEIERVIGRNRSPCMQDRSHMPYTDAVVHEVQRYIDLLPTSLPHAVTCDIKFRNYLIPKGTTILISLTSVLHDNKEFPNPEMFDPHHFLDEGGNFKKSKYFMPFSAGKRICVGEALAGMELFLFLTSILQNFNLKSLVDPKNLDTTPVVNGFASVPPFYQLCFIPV

As a reminder, the IC50 is the concentration needed to halve the response being measured. For orientation: CC50 means the concentration at which the toxic effect on the cells reaches its halfway point. By EC50 is commonly meant the concentration that produces a half-maximal response. Consider `O=C1CC(c2cccc(O)c2)Oc2ccc(O)cc21` (stereo not drawn) [Compound 1], for which the IC50 in [1] was 72 µM; in data set [2] it was > 100 µM; in data set [4], 31 µM; in data set [5] it was 85 µM; in data set [8], 80 µM. Also, the inhibition at 10 µM in [1] was < 15%; in data set [5], < 15%; in data set [6] (Trypanosoma brucei), 44%; in data set [8], < 15%. In addition, in data set [2], the “% Mitochondrial toxicity” value came to 6%. Further, the CC50 in data set [3] was > 100 µM. Further, in data set [4] (50 μM, compounds 1–3 and control), the “% Inhibition TbPTR1 (50 μM)” value was 81%. Also, in data set [4] (compounds 1–3 and control), the inhibition at 50 µM amounted to 81.3%. Moreover, the values for the EC50 in data set [6] (Trypanosoma brucei) and in [6] were 12.6 ± 1.69 µM and 12.6 ± 1.7 µM, respectively. The “selectivity index (SI)” value in [6] is “greater than 7”. Further, the “% Cell growth A549 (10 μM)” value in data set [7] was found to be 137%. The “% Cell growth W1-38 (10 μM)” value in data set [9] stood at 108%.

Take `O=C1CC(c2ccc(O)cc2)Oc2ccc(O)cc21` (stereo not drawn) [Compound 2]: the IC50 in [1] is > 100 µM; in data set [2] it was > 100 µM; in [4] it was 133 µM; in data set [5], 94 µM; in data set [8] it was > 100 µM. Besides, the inhibition at 10 µM in data set [1] is < 15%; in data set [5], < 15%; in data set [6] (Trypanosoma brucei), 49%; in data set [8], < 15%. Further, the “% Mitochondrial toxicity” value in data set [2] was “NI”. Besides, in data set [3], the CC50 is > 100 µM. Besides, the inhibition at 50 µM in data set [4] (compounds 1–3 and control) is 17.7%. For the same compound, the EC50 in data set [6] (Trypanosoma brucei) was 13 ± 1.82 µM; in data set [6], 13 ± 1.8 µM. In addition, the “selectivity index (SI)” value in data set [6] is “higher than 7”. Moreover, the “% Cell growth A549 (10 μM)” value in [7] turned out to be 105%. For the same compound, the “% Cell growth W1-38 (10 μM)” value in data set [9] is on record as 91%.

Regarding `O=C1CC(c2ccc(O)c(O)c2)Oc2ccc(O)cc21` (stereo not drawn) [Compound 3], the IC50 is 4 µM in [1]; > 100 µM in data set [2]; 82 µM in data set [4]; > 100 µM in data set [5]; 65 µM in [8]. The inhibition at 10 µM in data set [1] was < 15%; in data set [5] it was < 15%; in [6] (Trypanosoma brucei), 14%; in [8], < 15%. Also, in [2], the “% Mitochondrial toxicity” value was “NI”. In [3], the CC50 is > 100 µM. Further, the inhibition at 50 µM in data set [4] (compounds 1–3 and control) was found to be 34.6%. The EC50 in data set [6] (Trypanosoma brucei) and in data set [6] was 34.8 ± 1.1 µM each time. The “% Cell growth A549 (10 μM)” value in data set [7] came out at 124%. The “% Cell growth W1-38 (10 μM)” value in data set [9] was 86%.
